Results published in the supplement of paper PMC10307832.

Tests used:
Assay in all cases: relative viability (nuclei count vs DMSO), 5 days (fraction); higher = more cells survive
[1] = compound: CC1=NN=C(O1)C2=NN=C(C=C2)N3CCC(CC3)OC4=C(C=CC(=C4)F)Cl + CC1(C)CCC(c2ccc(Cl)cc2)=C(CN2CCN(c3ccc(C(=O)NS(=O)(=O)c4ccc(N[C@H](CCN5CCOCC5)CSc5ccccc5)c(S(=O)(=O)C(F)(F)F)c4)cc3)CC2)C1 [Navitoclax] (partner 0.5 µM)
Procedure, shortened: (§1)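 Lung cancer cell lines were pin-tool dosed in 1536-well plates on the day after seeding, with either a lone drug or a fixed anchor-drug dose plus five library-drug doses (not always all listed) in √10 steps. Nuclei were counted on 4× images after 5 days. Relative viability is the ratio of treated-well to vehicle-well nuclei counts, with each value a median of duplicate plates.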

[2] = compound: CC1=NN=C(O1)C2=NN=C(C=C2)N3CCC(CC3)OC4=C(C=CC(=C4)F)Cl + C[C@]1(O)C[C@@H](c2nc(-c3ccc4ccc(-c5ccccc5)nc4c3)c3c(N)nccn32)C1 [Linsitinib] (partner 1 µM)
Procedure, shortened: as §1

Tosedostat + Vorinostat = compound: CC(C)C[C@@H](C(=O)N[C@H](C(=O)OC1CCCC1)c1ccccc1)[C@H](O)C(=O)NO [Tosedostat] + O=C(CCCCCCC(=O)Nc1ccccc1)NO [Vorinostat] (partner 1 µM)
Procedure, shortened: as §1

Tosedostat + OSI-027 = compound: CC(C)C[C@@H](C(=O)N[C@H](C(=O)OC1CCCC1)c1ccccc1)[C@H](O)C(=O)NO [Tosedostat] + COc1cccc2cc(-c3nc([C@H]4CC[C@H](C(=O)O)CC4)n4ncnc(N)c34)[nH]c12 [OSI-027] (partner 0.5 µM)
Procedure, shortened: as §1

Cell Line	relative viability ([1]; first compound 0.253 µM)	relative viability ([1]; first compound 0.8 µM)	relative viability ([1]; first compound 2.53 µM)	relative viability ([1]; first compound 8 µM)	relative viability ([2]; first compound 0.253 µM)	relative viability ([2]; first compound 0.8 µM)	relative viability ([2]; first compound 2.53 µM)	relative viability ([2]; first compound 8 µM)	relative viability (Tosedostat + Vorinostat; first compound 0.02 µM)	relative viability (Tosedostat + Vorinostat; first compound 0.06325 µM)	relative viability (Tosedostat + Vorinostat; first compound 0.2 µM)	relative viability (Tosedostat + Vorinostat; first compound 0.6325 µM)	relative viability (Tosedostat + Vorinostat; first compound 2 µM)	relative viability (Tosedostat + OSI-027; first compound 0.02 µM)	relative viability (Tosedostat + OSI-027; first compound 0.06325 µM)	relative viability (Tosedostat + OSI-027; first compound 0.2 µM)	relative viability (Tosedostat + OSI-027; first compound 0.6325 µM)	relative viability (Tosedostat + OSI-027; first compound 2 µM)
EBC-1	0.352	0.375	0.26	0.276	0.549	0.558	0.623	0.57	–	–	–	–	–	–	–	–	–	–
EKVX	0.451	0.368	0.429	0.423	0.409	0.341	0.364	0.423	0.722	0.647	0.764	0.688	0.773	0.718	0.764	0.673	0.696	0.748
EMC-BAC-2	0.998	0.909	1.03	0.936	0.742	0.755	0.77	0.637	0.605	0.713	0.471	0.408	0.323	0.4	0.405	0.412	0.416	0.319
EPLC-272H	0.935	–	1.11	1.01	1.09	–	1.18	1.05	0.509	0.489	0.347	0.401	0.269	0.281	0.265	0.301	0.263	0.24
H3255	0.494	0.422	0.524	0.39	0.697	0.719	0.718	0.716	0.759	0.752	0.799	0.608	0.783	0.67	0.522	0.603	0.513	0.509
HARA	0.451	0.392	0.393	0.352	0.705	0.394	0.451	0.308	1.35	0.531	0.544	0.377	0.295	0.695	0.492	0.421	0.447	0.382
HCC-15	0.477	0.445	0.455	0.491	0.608	0.58	0.553	0.578	0.941	0.849	0.826	0.757	0.745	0.751	0.718	0.579	0.467	0.46
HCC-44	0.424	0.476	0.477	0.447	0.423	0.484	0.484	0.384	1.26	1.07	1.09	1.04	1.07	0.538	0.592	0.384	0.513	0.374
HCC-78	0.436	0.43	0.544	0.525	0.455	0.417	0.459	0.403	0.472	0.42	0.452	0.501	0.486	0.33	0.377	0.406	0.364	0.376
